Source: patent US11104703B2, “Binding compound and uses thereof” (priority 2016, dated 2021)
Numbered stars: 1 amine (or outer) side, 2 acyl side, 3 side chain; on linkers, the order of the positions; unused ones are H or OH. Square brackets hold non-standard residues; d marks the D form. Side chains are listed from the residue outwards. Peptide text beside a SMILES is read from it. * marks the point of attachment. Biotin = O=C1N[C@H]2[C@H](CS[C@H]2CCCCC(=O)*)N1; Gly(N-(CH2)3-guanidino) = N=C(N)NCCCNCC(=O)O; Glutaryl = O=C(CCCC(=O)[*:2])[*:1]; X2 = O=C(Oc1c(F)c(F)c(F)c(F)c1F)*; X1 = O=C1CCC(=O)N1OC(=O)*; X3 = C#Cc1cccc(N*)c1; Ahx = NCCCCCC(=O)O

Experiments:
Chymotrypsin = experiment: Steady state fluorogenic substrate assay, inactivation of chymotrypsin; conditions: for k3: mean; for second-order rate constant: chymotrypsin
Experimental: (§1) The ability of compounds of the invention to inhibit the activities of a range of commercially sourced proteases was assessed using steady state fluorogenic substrate assays. […] Assays were carried out in PBS, pH 7.4, at 37° C., in the presence of varying concentrations of inhibitor (10-50 μM) and a fixed concentration of substrate (50 μM). […] In this mechanism, the inhibitor I, binds the target protease to form an initial reversible complex EI, characterised by the inhibitor constant Ki. This is followed by the formation of an irreversible complex E-I from EI, characterised by the first-order rate constant k3.

ENaC = assay type: cell-based
Experimental: All determinations were conducted using a TECC24 semiautomated system. Unlike the traditional Ussing chamber assays, where the short circuit current (ISC) is measured as an index of CFTR correction, the TECC-24 assay measures the equivalent current (IEQ).

Thrombin = Thrombin (Homo sapiens, UniProt P00734)
Experimental: as §1

Matriptase = Matriptase (Homo sapiens, UniProt Q9Y5Y6); conditions: for k3/Ki: Mean (±SD); for k3: mean
Experimental: as §1

Trypsin = conditions: for k3 / k3/Ki / Ki: Trypsin; for k3: first-order rate constant, mean; for k3/Ki: overall second-order rate constant; for k3/Ki / Ki: Mean (±SD); for Ki: PBS pH 7.4, 37° C., Cbz-Gly-Gly-Arg-NHMec 50 μM; for over all second-order rate constant: trypsin
Experimental: as §1

[1] = system: primary human airway epithelial (HAE) cell cultures; conditions: 10 μM, Boc-QAR-AMC 50 μM, 37° C.
Experimental: (§2) Inhibition of endogenous protease activities in CF sputum sol, was conducted as for Example 8 but in the presence of Boc-Gln-Ala-Arg-AMC (50 μM) as substrate. The rate of hydrolysis of the substrate at 37° C. was monitored and residual activity determined.

[2] = system: endogenous protease activities in CF sputum sol; conditions: CF sputum sol from 8 individual CF patients; Boc-Gln-Ala-Arg-AMC 50 μM
Experimental: as §2

[3] = biological target: Human Airways Trypsin-like protease (HAT) (Homo sapiens, UniProt O60235); conditions: for k3/Ki: Mean (±SD); for k3: mean
Experimental: as §1

Plasmin = Plasmin (Homo sapiens, UniProt P00747); experiment: Steady state fluorogenic substrate assay, inactivation of plasmin
Experimental: as §1

[4] = system: trypsin-like serine proteases in CF Sol; conditions: 10 μM; pooled CF sputum sol diluted ×4; substrate Cbz-Gly-Gly-Arg-AMC; 37° C.
Experimental: Briefly, the spectrofluorimetic analysis was conducted on a sample of pooled supernatant recovered by centrifugation from expectorated cystic fibrosis sputum, which had been diluted ×4 with phosphate-buffered saline (sputum sol). […] The rate of hydrolysis of the substrate at 37° C. was monitored and inhibition as a % of an untreated control calculated.

[5] = system: primary CF Airway Epithelial Cells (AECs); conditions: 50 μM, 24 hours, n=3, vehicle control 3.5
Experimental: Mucociliary clearance was quantified by measuring the velocity of microbeads apically applied to differentiated primary CF Airway Epithelial Cells (AECs). Compounds (50 μM) were added to the apical surface of primary CF AECs for a period of 24 hours. Mucociliary flow was then determined by tracking and measuring the velocity of apically applied microbeads across the CF AEC surface.

Human Airways Trypsin-like protease (HAT), sequence (O60235 whole entry): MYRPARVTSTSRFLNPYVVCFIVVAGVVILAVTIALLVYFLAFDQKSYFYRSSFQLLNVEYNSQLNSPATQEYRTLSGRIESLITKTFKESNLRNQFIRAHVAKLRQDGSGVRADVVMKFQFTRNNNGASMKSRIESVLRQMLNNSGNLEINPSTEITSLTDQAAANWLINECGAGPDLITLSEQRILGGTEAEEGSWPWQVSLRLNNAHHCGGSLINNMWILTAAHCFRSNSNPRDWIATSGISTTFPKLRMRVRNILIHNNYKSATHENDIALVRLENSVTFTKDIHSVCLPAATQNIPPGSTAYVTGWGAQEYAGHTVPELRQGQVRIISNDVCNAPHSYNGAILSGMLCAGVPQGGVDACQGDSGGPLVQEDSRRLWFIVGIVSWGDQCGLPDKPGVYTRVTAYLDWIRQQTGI
Plasmin, sequence (P00747 97-810, species assumed): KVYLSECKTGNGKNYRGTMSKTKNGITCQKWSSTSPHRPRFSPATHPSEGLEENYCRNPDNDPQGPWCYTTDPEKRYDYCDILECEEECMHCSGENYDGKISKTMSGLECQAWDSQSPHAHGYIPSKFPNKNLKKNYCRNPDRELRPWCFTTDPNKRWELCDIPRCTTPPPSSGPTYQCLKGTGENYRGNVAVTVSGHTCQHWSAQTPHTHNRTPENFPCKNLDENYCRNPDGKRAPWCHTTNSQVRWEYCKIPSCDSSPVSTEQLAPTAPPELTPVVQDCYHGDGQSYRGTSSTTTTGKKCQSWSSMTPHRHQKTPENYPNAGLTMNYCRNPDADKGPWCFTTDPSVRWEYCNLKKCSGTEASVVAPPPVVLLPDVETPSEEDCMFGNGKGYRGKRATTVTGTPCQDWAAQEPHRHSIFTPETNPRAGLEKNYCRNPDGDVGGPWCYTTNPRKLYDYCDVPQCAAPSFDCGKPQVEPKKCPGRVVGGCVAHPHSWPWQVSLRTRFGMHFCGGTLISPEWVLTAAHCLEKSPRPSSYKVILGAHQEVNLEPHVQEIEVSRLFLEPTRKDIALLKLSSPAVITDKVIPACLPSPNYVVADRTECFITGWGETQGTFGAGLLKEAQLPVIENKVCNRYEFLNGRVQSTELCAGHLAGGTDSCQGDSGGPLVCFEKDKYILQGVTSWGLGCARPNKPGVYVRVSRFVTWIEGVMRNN
Matriptase, sequence (Q9Y5Y6 whole entry, species assumed): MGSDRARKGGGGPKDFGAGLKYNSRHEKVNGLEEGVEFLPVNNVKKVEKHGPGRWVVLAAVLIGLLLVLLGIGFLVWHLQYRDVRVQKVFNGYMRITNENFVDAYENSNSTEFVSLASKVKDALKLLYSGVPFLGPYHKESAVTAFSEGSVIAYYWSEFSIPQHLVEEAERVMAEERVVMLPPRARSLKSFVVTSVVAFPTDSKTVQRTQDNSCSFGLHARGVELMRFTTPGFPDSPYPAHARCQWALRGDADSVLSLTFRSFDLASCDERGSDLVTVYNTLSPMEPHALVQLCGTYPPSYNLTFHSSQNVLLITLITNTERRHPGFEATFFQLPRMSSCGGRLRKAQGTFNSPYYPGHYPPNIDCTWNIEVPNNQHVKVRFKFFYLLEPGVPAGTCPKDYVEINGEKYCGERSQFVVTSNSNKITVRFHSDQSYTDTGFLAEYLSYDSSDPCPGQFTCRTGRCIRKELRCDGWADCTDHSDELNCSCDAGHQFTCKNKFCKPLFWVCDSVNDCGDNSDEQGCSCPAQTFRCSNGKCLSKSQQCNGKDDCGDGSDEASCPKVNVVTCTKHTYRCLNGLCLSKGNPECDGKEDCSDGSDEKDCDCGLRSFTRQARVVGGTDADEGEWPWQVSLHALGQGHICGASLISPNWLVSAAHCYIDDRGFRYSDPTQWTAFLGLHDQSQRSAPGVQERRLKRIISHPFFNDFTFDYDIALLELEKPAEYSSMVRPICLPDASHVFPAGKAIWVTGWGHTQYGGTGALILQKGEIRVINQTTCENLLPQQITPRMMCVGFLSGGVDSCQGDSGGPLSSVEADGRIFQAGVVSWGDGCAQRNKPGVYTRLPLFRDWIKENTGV

## Biotin-PEG-NH-Gly-Gly-N-(benzyl)-glycine succinimidyl carbamate [NFP849]
Chymotrypsin; Chymotrypsin, Mean (±SD)
  k3/Ki: 1.3 (±0.4) × 10^6 M^−1 min^−1
Chymotrypsin; Chymotrypsin, Suc-Ala-Ala-Pro-Phe-NHMec 50 μM, Mean (±SD)
  Ki: 0.89 µM
Chymotrypsin; Chymotrypsin
  k3: 0.8 min⁻¹
Chymotrypsin
  second-order rate constant: 1.28 (±0.442)×10^6 M^−1·min^−1

## Biotin-PEG-NH—(N-methyl glycyl)-(N-methyl glycyl)-N-(benzyl)-glycine succinimidyl carbamate [CG877]
Chymotrypsin; Chymotrypsin
  k3: 0.7 min⁻¹
Chymotrypsin
  second-order rate constant: 2.46 (±0.214)×10^5 M^−1·min^−1

## N=C(N)NC(=O)c1nc(Cl)c(N)nc1N [amiloride, reference compound]
ENaC; 10 μM, added to terminate the experiment, ENaC-expressing FRT cells
  inhibition of the observable current: > 95%

## Biotin-PEG-NH—(N-benzyl-glycyl)-(D)-phenylalanyl-N-(n-guanidino-propyl)-glycine succinimidyl carbamate [NAT988]
Thrombin; Mean (±SD)
  k3/Ki: 4.7 (± 1.1) × 10^5 M^−1 min^−1
Thrombin; mean
  k3: 0.4 min⁻¹

## Biotin-PEG-NH—N-(n-guanidino-propyl)-glycine-Gln-Sar-N-(n-guanidino-propyl)-glycine succinimidyl carbamate [NAP1099]
Matriptase
  k3/Ki: 8.52 (±9.05) × 10^6 M^−1 min^−1
  k3: 0.302 min⁻¹
Trypsin
  k3: 0.354 min⁻¹
  k3/Ki: 3.80 (±3.16) × 10^6 M^−1 min^−1
[1]
  extracellular tryptic activity: reduced extracellular tryptic activity to a similar degree as that of QUB-TL1
[2]
  inhibition of endogenous protease activity, residual activity compared with QUB-TL1: superior to QUB-TL1
[3]
  k3/Ki: 3.71 (±2.89) × 10^6 M^−1 min^−1
  k3: 0.474 min⁻¹

## Biotin-PEG-NH-Gly-Gly-N-(n-amino-butyl)-glycine succinimidyl carbamate [NKP830]
Plasmin; Boc-Val-Leu-Lys-NHMec 50 μM, Mean (±SD)
  Ki: 7.2 µM
Plasmin; Mean (±SD)
  k3/Ki: 6.2 (±0.9) × 10^4 M^−1 min^−1
Plasmin; mean
  k3: 0.4 min⁻¹
Trypsin
  Ki: 0.22 µM
  k3: 0.5 min⁻¹
  k3/Ki: 2.7 (±0.5) × 10^6 M^−1 min^−1
  over all second-order rate constant: 2.74 (±0.547)×10^6 M^−1·min^−1

## N=C(N)NCCCN(CC(=O)NCC(=O)NCC(=O)NCCCCCC(=O)N[C@@H](CCCCNC(=O)CCCC[C@@H]1SC[C@@H]2NC(=O)N[C@@H]21)C(=O)O)C(=O)ON1C(=O)CCC1=O [NAP897, HO-Lys(Biotin)-Ahx-Gly-Gly-N-(n-guanidino-propyl)-glycine succinimidyl carbamate] (X1-[Gly(N-(CH2)3-guanidino)]GG[Ahx]K(Biotin)-OH)
Trypsin
  Ki: 0.66 µM
  k3: 0.7 min⁻¹
  k3/Ki: 1.3 (±0.4) × 10^6 M^−1 min^−1

## Biotin-PEG-NH-Gly-Gly-N-(n-guanidino-propyl)-glycine succinimidyl carbamate [NAP858]
ENaC; 50 μM, primary CF cultures, over a 90 minute period
  ENaC activity (reduction of current): 36 μA/cm2
[4]
  inhibition of hydrolytic action of trypsin-like serine proteases in CF Sol: complete inhibition
[5]
  mucociliary clearance (velocity of apically applied microbeads): 6.83 μm/s
Matriptase
  k3/Ki: 1.30 (±0.943) × 10^6 M^−1 min^−1
  k3: 0.314 min⁻¹
Trypsin
  Ki: 0.486 µM
  k3: 0.299 min⁻¹
  k3/Ki: 1.95 (±2.62) × 10^6 M^−1 min^−1
  over all second-order rate constant: 2.60 (±0.884)×10^6 M^−1·min^−1
[1]
  extracellular tryptic activity: reduced extracellular tryptic activity to a similar degree as that of QUB-TL1
[2]
  inhibition of endogenous protease activity, residual activity compared with QUB-TL1: superior to QUB-TL1
[3]
  k3/Ki: 1.50 (±1.76) × 10^6 M^−1 min^−1
  k3: 0.464 min⁻¹

## N=C(N)NCCCN(CC(=O)NCC(=O)NCC(=O)NCCCCCC(=O)N[C@@H](CCCCNC(=O)CCCC[C@@H]1SC[C@@H]2NC(=O)N[C@@H]21)C(=O)O)C(=O)Oc1c(F)c(F)c(F)c(F)c1F [NAP966, HO-Lys(biotin)-Ahx-Gly-Gly-N-(n-guanidino-propyl)-glycine pentafluorophenyl carbamate] (X2-[Gly(N-(CH2)3-guanidino)]GG[Ahx]K(Biotin)-OH)
Trypsin
  Ki: 2.1 µM
  k3: 0.4 min⁻¹
  k3/Ki: 1.9 (±0.25) × 10^5 M^−1 min^−1

## C#Cc1cccc(NC(=O)CCCC(=O)NCCCC[C@H](NC(=O)CCCCCNC(=O)CNC(=O)CNC(=O)CN(CCCNC(=N)N)C(=O)ON2C(=O)CCC2=O)C(=O)O)c1 [NAP884, N-6-(1-acetylene-3-amino-phenyl)-di-carboxy-pentane-Lys-NH-Ahx-Gly-Gly-N-(n-guanidino-propyl)-glycine succinimidyl carbamate] (X1-[Gly(N-(CH2)3-guanidino)]GG[Ahx]K([Glutaryl-X3])-OH)
Trypsin
  Ki: 0.42 µM
  k3: 0.528 min⁻¹
  k3/Ki: 1.34 (±0.351) × 10^6 M^−1 min^−1
